Target: T1, FraR (Salmonella enterica, UniProt Q8ZLC9)
T1 sequence (Q8ZLC9 1-239): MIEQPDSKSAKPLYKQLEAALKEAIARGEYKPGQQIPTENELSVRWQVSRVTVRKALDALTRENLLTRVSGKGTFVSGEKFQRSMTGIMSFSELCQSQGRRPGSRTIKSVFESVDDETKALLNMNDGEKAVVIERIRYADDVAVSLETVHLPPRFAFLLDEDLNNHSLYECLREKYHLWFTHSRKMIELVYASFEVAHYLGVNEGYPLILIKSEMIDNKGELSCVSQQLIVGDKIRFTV
Assay: online buffer exchange native MS titration
Format: binding

O=C(O)C[C@H](NCC(=O)[C@@H](O)[C@H](O)[C@H](O)COP(=O)(O)O)C(=O)O [6-P-F-Asp, 6-phosphofructose-aspartate] gave a Kd of 3.8 ± 0.6 µM.
